Results as given in ChEMBL document CHEMBL3763135, “Synthesis and evaluation of thiophene-based guanylhydrazones (iminoguanidines) efficient against panel of voriconazole-resistant fungal isolates” (Bioorg Med Chem, 2016).
Calls of active or inactive are those of the source. No cut-off for these calls is given here.

Tests used:
[1] = species on record: Danio rerio; assay: Toxicity against zebrafish embryo assessed as effect on blood circulation at 5 ug/ml measured at 96 hrs post fertilization by inverted microscopic analysis; format: organism-based; conditions: in vivo
[2] = species on record: Danio rerio; assay: Toxicity against zebrafish embryo assessed as growth retardation at 25 ug/ml measured at 96 hrs post fertilization by inverted microscopic analysis; format: organism-based; conditions: in vivo
[3] = species on record: Danio rerio; assay: Toxicity against zebrafish embryo assessed as effect on eyes at 25 ug/ml measured at 96 hrs post fertilization by inverted microscopic analysis; format: organism-based; conditions: in vivo
[4] = species on record: Danio rerio; assay: Toxicity against zebrafish embryo assessed as effect on heart beat at 5 ug/ml measured at 96 hrs post fertilization by inverted microscopic analysis; format: organism-based; conditions: in vivo
[5] = species on record: Danio rerio; assay: Toxicity against zebrafish embryo assessed as unhatched embryos at 25 ug/ml measured at 96 hrs post fertilization by inverted microscopic analysis; format: organism-based; conditions: in vivo
[6] = species on record: Danio rerio; assay: Toxicity against zebrafish embryo assessed as effect on notochord at 25 ug/ml measured at 96 hrs post fertilization by inverted microscopic analysis; format: organism-based; conditions: in vivo
[7] = species on record: Danio rerio; assay: Toxicity against zebrafish embryo assessed as head malformation at 10 ug/ml measured at 96 hrs post fertilization by inverted microscopic analysis; format: organism-based; conditions: in vivo
[8] = species on record: Danio rerio; assay: Toxicity against zebrafish embryo assessed as head malformation at 2.5 ug/ml measured at 96 hrs post fertilization by inverted microscopic analysis; format: organism-based; conditions: in vivo
[9] = species on record: Danio rerio; assay: Toxicity against zebrafish embryo assessed as effect on notochord at 2.5 ug/ml measured at 96 hrs post fertilization by inverted microscopic analysis; format: organism-based; conditions: in vivo
[10] = species on record: Danio rerio; assay: Toxicity against zebrafish embryo assessed as normal embryos at 2.5 ug/ml measured at 96 hrs post fertilization by inverted microscopic analysis; format: organism-based; conditions: in vivo
[11] = species on record: Danio rerio; assay: Toxicity against zebrafish embryo assessed as head malformation at 25 ug/ml measured at 96 hrs post fertilization by inverted microscopic analysis; format: organism-based; conditions: in vivo
[12] = test system: Candida albicans; assay: Antibiofilm activity against Candida albicans assessed as inhibition of Spider medium-induced hyphae formation at sub-MIC after 24 hrs by propidium iodide and FITC-conjugated concanavaline A staining based fluorescence microscopy; format: functional, organism-based
[13] = test system: Danio rerio; assay: Toxicity against zebrafish embryo assessed as yolk edema at 25 ug/ml measured at 96 hrs post fertilization by inverted microscopic analysis; format: organism-based; conditions: in vivo
[14] = species on record: Danio rerio; assay: Toxicity against zebrafish embryo assessed as effect on blood circulation at 25 ug/ml measured at 96 hrs post fertilization by inverted microscopic analysis; format: organism-based; conditions: in vivo
[15] = test system: Aspergillus fumigatus; assay: Antifungal activity against Aspergillus fumigatus ATCC 13073 by broth dilution method; format: functional
[16] = species on record: Danio rerio; assay: Toxicity against zebrafish embryo assessed as effect on otoliths at 2.5 ug/ml measured at 96 hrs post fertilization by inverted microscopic analysis; format: organism-based; conditions: in vivo
[17] = test system: Candida albicans; assay: Antifungal activity against Candida albicans CA5 assessed as fungal growth at sub-MIC measured over 12 hrs by time-kill dependence-based spectrophotometric analysis relative to DMSO control; format: functional
[18] = species on record: Danio rerio; assay: Toxicity against zebrafish embryo assessed as growth retardation at 10 ug/ml measured at 96 hrs post fertilization by inverted microscopic analysis; format: organism-based; conditions: in vivo
[19] = species on record: Danio rerio; assay: Toxicity against zebrafish embryo assessed as effect on notochord at 5 ug/ml measured at 96 hrs post fertilization by inverted microscopic analysis; format: organism-based; conditions: in vivo
[20] = species on record: Danio rerio; assay: Toxicity against zebrafish embryo assessed as effect on heart beat at 25 ug/ml measured at 96 hrs post fertilization by inverted microscopic analysis; format: organism-based; conditions: in vivo
[21] = test system: Danio rerio; assay: Toxicity against zebrafish embryo assessed as pericardial edema at 25 ug/ml measured at 96 hrs post fertilization by inverted microscopic analysis; format: organism-based; conditions: in vivo
[22] = species on record: Danio rerio; assay: Toxicity against zebrafish embryo assessed as growth retardation at 2.5 ug/ml measured at 96 hrs post fertilization by inverted microscopic analysis; format: organism-based; conditions: in vivo
[23] = species on record: Danio rerio; assay: Toxicity against zebrafish embryo assessed as effect on otoliths at 25 ug/ml measured at 96 hrs post fertilization by inverted microscopic analysis; format: organism-based; conditions: in vivo
[24] = species on record: Danio rerio; assay: Toxicity against zebrafish embryo assessed as effect on otoliths at 5 ug/ml measured at 96 hrs post fertilization by inverted microscopic analysis; format: organism-based; conditions: in vivo
[25] = species on record: Danio rerio; assay: Toxicity against zebrafish embryo assessed as effect on tail tip at 25 ug/ml measured at 96 hrs post fertilization by inverted microscopic analysis; format: organism-based; conditions: in vivo
[26] = Toxicity against zebrafish embryo assessed as dead embryos at 2.5 ug/ml measured at 96 hrs post fertilization by inverted microscopic analysis; format: organism-based, Danio rerio; conditions: read-out: Activity
[27] = test system: MRC5; assay: Cytotoxicity against human MRC5 cells after 48 hrs by MTT assay; format: cell-based; conditions: MRC5, 48 h
[28] = species on record: Danio rerio; assay: Toxicity against zebrafish embryo assessed as effect on tail tip at 5 ug/ml measured at 96 hrs post fertilization by inverted microscopic analysis; format: organism-based; conditions: in vivo
[29] = Hemolytic effect in sheep RBC assessed as release of hemoglobin at cytotoxic IC50 after 1 hr; format: cell-based, Ovis aries, Erythrocyte; conditions: sheep red blood cells, read-out: Activity
[30] = species on record: Danio rerio; assay: Toxicity against zebrafish embryo assessed as skeletal deformities at 25 ug/ml measured at 96 hrs post fertilization by inverted microscopic analysis; format: organism-based; conditions: in vivo
[31] = Toxicity against zebrafish embryo assessed as dead embryos at 10 ug/ml measured at 96 hrs post fertilization by inverted microscopic analysis; format: organism-based, Danio rerio; conditions: read-out: Activity
[32] = test system: Pichia kudriavzevii; assay: Antibiofilm activity against Pichia kudriavzevii ATCC 34135 assessed as disruption of preformed biofilm after 24 hrs by concanavalin A-FITC-staining based fluorescence microscopic analysis; format: functional
[33] = Toxicity against zebrafish embryo measured at 96 hrs post fertilization by inverted microscopic analysis; format: organism-based, Danio rerio; conditions: zebrafish embryos
[34] = Hemolytic effect in sheep RBC assessed as release of hemoglobin at MIC after 1 hr; format: ADME, cell-based, Ovis aries, Erythrocyte; conditions: sheep red blood cells, read-out: Activity
[35] = test system: Candida albicans; assay: Antifungal activity against Candida albicans CA5 assessed as fungal growth at sub-MIC measured after 24 hrs by time-kill dependence-based spectrophotometric analysis relative to DMSO control; format: functional, organism-based
[36] = test system: Pichia kudriavzevii; assay: Antibiofilm activity against 48 hrs pre-formed Candida krusei ATCC 34135 assessed as inhibition of hyphae formation at MIC after 24 hrs by concanavalin A-FITC-staining based fluorescence microscopic analysis; format: functional, organism-based
[37] = test system: Pichia kudriavzevii; assay: Antibiofilm activity against Candida krusei ATCC 34135 assessed as inhibition of hyphae formation at MIC after 24 hrs by concanavalin A-FITC-staining based fluorescence microscopic analysis; format: functional, organism-based
[38] = test system: Candida albicans; assay: Antibiofilm activity against Candida albicans ATCC 10231 assessed as inhibition of hyphae formation at MIC after 24 hrs by concanavalin A-FITC-staining based fluorescence microscopic analysis; format: functional, organism-based
[39] = test system: Candida parapsilosis; assay: Antibiofilm activity against Candida parapsilosis C27 assessed as inhibition of hyphae formation at MIC after 24 hrs by concanavalin A-FITC-staining based fluorescence microscopic analysis; format: functional, organism-based
[40] = test system: Candida albicans; assay: Induction of apoptosis in Candida albicans CA5 assessed as nuclear condensation at MIC measured after 2 hrs by concavaline-FITC/PI/DAPI-staining based fluorescence microscopic analysis relative to DMSO control; format: functional, organism-based
[41] = Selectivity index, ratio of IC50 for human MRC5 cell to MIC for Candida albicans CA5
[42] = test system: Candida albicans; assay: Induction of membrane damage in Candida albicans CA5 at MIC measured after 2 hrs by concavaline-FITC/PI/DAPI-staining based fluorescence microscopic analysis relative to DMSO control; format: functional
[43] = species on record: Danio rerio; assay: Toxicity against zebrafish embryo assessed as growth retardation at 50 ug/ml measured at 96 hrs post fertilization by inverted microscopic analysis; format: organism-based; conditions: in vivo
[44] = species on record: Danio rerio; assay: Toxicity against zebrafish embryo assessed as effect on blood circulation at 50 ug/ml measured at 96 hrs post fertilization by inverted microscopic analysis; format: organism-based; conditions: in vivo

With `Cl.N=C(N)N/N=C/c1ccc(-c2ccc(Br)cc2)s1` the Activity [1] was 0%, the Activity [2] was 0% and the Activity [3] was 0%. For the same compound, the Activity [4] was 0%, the Activity [5] was 0% and the Activity [6] was 0%. The Activity [7] was 0%, the Activity [8] was 0% and the Activity [9] was 0%. The Activity [10] was 100%, the Activity [11] was 0% and the Activity [12] was “Active”. The Activity [13] was 0%, the Activity [14] was 0% and the MIC [15] was 6.25 µg/mL. It also gave an Activity [16] of 0%, an Activity [17] of 50% and an Activity [18] of 0%. It also gave an Activity [19] of 0%, an Activity [20] of 0% and an Activity [21] of 100%. The Activity [22] was 0%, the Activity [23] was 0% and the Activity [24] was 0%. The Activity [25] was 100%, the mortality at 96 h, 2.5 ug/ml [26] was 0% and the IC50 [27] was 2 µg/mL. For the same compound, the Activity [28] was 0%, the hemolysis at 1 h [29] was ≤ 10% and the Activity [30] was 0%. For the same compound, the mortality at 96 h, 10 ug/ml [31] was 30%, the MBEC [32] was 125 µg/mL and the LC50 at 96 h [33] was 14.1 µg/mL. For the same compound, the hemolysis at 1 h [34] was ≤ 10% and the Activity [35] was “inactive”.
In the case of `Cc1ccc(-c2ccc(/C=N/NC(=N)N)s2)cc1.Cl`, the Activity [1] was 0%, the Activity [4] was 0% and the Activity [36] was “Active”. For the same compound, the Activity [7] was 100%, the Activity [8] was 0% and the Activity [9] was 0%. The Activity [10] was 56.67%, the Activity [12] was “Active” and the Activity [37] was “Active”. For the same compound, the MIC [15] was 6.25 µg/mL, the Activity [16] was 0% and the Activity [17] was 50%. The Activity [18] was 100%, the Activity [19] was 0% and the Activity [38] was “Active”. The Activity [39] was “Active”, the Activity [22] was 0% and the Activity [24] was 62.5%. The Activity [40] was “inactive”, the mortality at 96 h, 2.5 ug/ml [26] was 10% and the IC50 [27] was 2.5 µg/mL. The Activity [28] was 0%, the hemolysis at 1 h [29] was ≤ 10% and the mortality at 96 h, 10 ug/ml [31] was 50%. For the same compound, the MBEC [32] was 250 µg/mL, the “Selectivity Index” value [41] was 5 and the LC50 at 96 h [33] was 8.2 µg/mL. The hemolysis at 1 h [34] was ≤ 10% and the Activity [35] was “inactive”.
In the case of `Cl.Cl.N=C(N)N/N=C/c1ccc(-c2ccc(/C=N/NC(=N)N)s2)cc1`, the Activity [42] was 20%, the Activity [1] was 0% and the Activity [2] was 0%. For the same compound, the Activity [3] was 0%, the Activity [4] was 0% and the Activity [5] was 0%. For the same compound, the Activity [36] was “inactive”, the Activity [43] was 0% and the Activity [6] was 0%. It also gave an Activity [7] of 0%, an Activity [8] of 0% and an Activity [9] of 0%. For the same compound, the Activity [10] was 100%, the Activity [11] was 0% and the Activity [12] was “Active”. For the same compound, the Activity [13] was 0%, the Activity [14] was 0% and the Activity [37] was “Active”. The MIC [15] was 25 µg/mL, the Activity [16] was 0% and the Activity [18] was 0%. The Activity [19] was 0%, the Activity [38] was “Active” and the Activity [20] was 0%. The Activity [44] was 0%, the Activity [39] was “Active” and the Activity [21] was 0%. It also gave an Activity [22] of 0%, an Activity [23] of 0% and an Activity [24] of 0%. The Activity [40] was “inactive”, the Activity [25] was 0% and the mortality at 96 h, 2.5 ug/ml [26] was 0%. The IC50 [27] was 10 µg/mL, the Activity [28] was 0% and the Activity [30] was 0%. For the same compound, the mortality at 96 h, 10 ug/ml [31] was 0%, the MBEC [32] was 500 µg/mL and the “Selectivity Index” value [41] was 20. The LC50 at 96 h [33] was > 50 µg/mL and the Activity [35] was “inactive”.
